Source: a melting point compilation (Tetko et al.; mined from patent text by program, amines drawn as free bases though some values may be those of a salt)

Structure (SMILES)	melting point
CC(=O)OC1Oc2ccc(OS(=O)(=O)N(C)C)cc2C1(C)C (stereo not drawn)	67 to 68 °C
N#CC=Cc1ccc(Cl)cc1C(=O)c1ccccc1Cl	137 to 139 °C
O=C(O)C1Cc2cc3c(=O)c4c(F)cccc4oc3c(Cl)c2O1 (stereo not drawn)	300 °C
Cc1c2ccnc(Cl)c2cc2c1[nH]c1ccncc12	> 263 °C
O=C1NCC(C(=O)O)S1 (stereo not drawn)	148 to 150 °C
CC1(c2cccs2)Cc2cc(OCC(=O)O)c(Cl)c(Cl)c2C1=O (stereo not drawn)	161 to 162 °C
CN(C)c1ccc(C=CC(=O)C=Cc2ccc(N(C)C)cc2)cc1	174 to 176 °C
CCCc1cc2c(=O)n3cc(C(=O)O)ccc3nc2s1	250 to 254 °C
CS(=O)(=O)N1CCN(Cc2ccccc2)CC1	115 to 116 °C
COc1cccc2c(C(F)(F)F)cc(C)nc12	112 to 113 °C
CN(C)c1cc(C(=O)O)ncn1	250 °C
O=Cc1cccc2sc(-c3ccccc3)nc12	127 to 128 °C
OC1(c2ccc(C3OCCO3)cc2)CCCCC1	95 to 97 °C
COC(=O)c1ccccc1NN=Cc1ccccc1	66.5 to 67.5 °C
COc1cc2ncnc(N3CCC(O)(CCI)CC3)c2cc1OC	179 to 181 °C
CC(=O)Nc1cc2c(c(C(=O)O)c1)NCCC2	258 to 259 °C
CC(C(=O)O)c1ccc2c(c1)C(=O)Cc1ccc(F)cc1S2 (stereo not drawn)	148 °C
Oc1cc(Cl)c(OCc2ccccc2Cl)c(Cl)c1	108 °C
COc1cc(OC)c2c(=O)[nH]c(-c3ccc(OCCNC(C)C)c(-c4cccc(S(C)=O)c4)n3)nc2c1 (stereo not drawn)	156 to 157 °C
CCCCNc1ccc(S(=O)(=O)N2CC(N(Cc3ccccc3)C(=O)OC(C)(C)C)C2)cc1	115 to 116 °C
c1ccc2c(c1)CCn1cnnc1C2	191 °C
CCOc1ccc2[nH]c(=O)n(C3CCCCCC3)c2c1	204 °C
COc1ccc(C(=O)Nc2ccccc2)c(C)c1	149 to 150 °C
COC(=O)C1(NC(=O)C2(Br)SC=C(Br)C2Br)CCCCCC1 (stereo not drawn)	165 to 168 °C

Structure (SMILES)	melting point
O=Cc1c(N2CCNCC2)n(Cc2ccccc2)c2ccccc12	163 to 165 °C
c1cncc(CCNc2nc(-c3cccs3)ncc2-n2cccn2)c1	133 to 134 °C
Clc1ccc(Oc2ccc(N3CCNCC3)nc2)cc1	98 to 100 °C
Nc1nsc2nc3ccccc3n12	255 to 256 °C
COCc1c[nH]c2c([N+](=O)[O-])cc(C)cc2c1=O	> 240 °C
COC(=O)c1c(O)ccn1C	44 to 46 °C
CC1(C)C=C(N2Cc3ccccc3C2=O)c2cc(S(=O)(=O)C(F)(F)F)ccc2O1	110 to 115 °C
COC(=O)c1ccc2[nH]nnc2c1C(=O)OC	147 to 150 °C
O=C1[C@H]2CCC[C@H]2N(C(=O)CBr)c2ccccc2N1Cc1ccc([N+](=O)[O-])cc1 (relative stereo)	160 to 162 °C
CC(C)c1cccc(C(C)C)c1NC(=O)CS(=O)(=O)CCN1CCN(c2ccccc2)CC1	197 to 200 °C
CC(=O)N(C(C)=O)c1ncc(C#Cc2cnn3c(C(F)(F)F)cc(-c4ccc(C(F)(F)F)cc4)nc23)cn1	253 to 254 °C
CN1C(=O)C(c2c[nH]c3ccccc23)=C(c2cn(C)c3ccccc23)C1=O	168 to 171 °C
CS(=O)(=O)N1Cc2nc3c(N)nc4ccccc4c3n2CC(O)C1 (stereo not drawn)	282 to 283 °C
CC(C)(C)OC(=O)CN(C(=O)CNC(=O)Nc1cccc(-c2nnn[nH]2)c1)c1ccccc1C(=O)c1ccccc1	163 to 175 °C
O=C(On1nnc2ccccc21)c1ccc2c(c1)OC(c1ccccc1)(c1ccccc1)O2	158 to 160 °C
CC(=O)N(C)Cc1ccc2c(c1)C(Cc1ccnc(F)c1)(Cc1ccnc(F)c1)c1ccccc1-2	136 to 137 °C
Cn1c(CCN2CCN(c3ccc(Cl)cc3)CC2)nc2ccc3ccccc3c21	213 to 215 °C
O=C1CCN(Cc2ccccn2)CC1C(c1ccccc1)c1ccccc1 (stereo not drawn)	100 °C
COc1ccc(C(=C(C)P(c2ccccc2)c2ccccc2)c2ccc(OC)cc2)cc1	123 to 125 °C
Cn1ncc(C(=O)NC2COC2)c1C(=O)Nc1ccn2nc(-c3ccccc3)nc2c1	> 250 °C
COCCNC(N)=Nc1ccccc1N1CCOCC1	125 to 128 °C
CO/C=C1/C(=O)NC(=O)c2ccc(-n3cccc3)cc21	272 to 273 °C
O=c1[nH]c2cc(-n3cnc4c3CCCC4)c([N+](=O)[O-])cc2[nH]c1=O	> 300 °C
CC(=O)N[C@@H](CS)C(=O)NCCSC(C)=O	153 to 154 °C

Second part, the compound after the results:

melting point	Structure (SMILES)
188 °C	OC1CSC(Oc2ccc(-c3cncnc3)nc2)C(O)C1O (stereo not drawn)
102 °C	O=C(NCc1cccc(C(F)(F)F)c1)c1ccc2n1Cc1ccccc1N(C(=O)CSc1ccc(Br)cc1)C2
237 to 239 °C	C[C@@H]1S[C@@H](C(=O)Nc2ccc(Cn3oc(=O)[nH]c3=O)cc2)Cc2cc3c(cc2C1=O)OCO3
> 250 °C	Cc1ccc(-c2ccc(Cl)cc2)cc1-c1c(O)cnn(C)c1=O
233 to 234 °C	O=C(CN1CC(F)(F)Cn2c1nc(-c1ccncn1)cc2=O)c1ccccc1
194 to 196 °C	O=CNc1nc(S(=O)(=O)Cl)n[nH]1
67.5 to 69 °C	O=S(=O)(/C(=C\c1ccccc1)CO)c1ccccc1
146 to 148 °C	COc1ccc2[nH]c(C)c(CC(N)=O)c2c1
118 °C	O=C1N(c2ccc(Cl)cc2Cl)Cc2cnc(Nc3ccccc3)nc2N1c1cccc(CCN2CCOCC2)c1
78 to 82 °C	Cc1ccc2c3c(ccc2n1)OC[C@H](CN1CCN(c2ccc4ccccc4n2)C[C@@H]1C)O3
153 °C	O=c1cc(-c2ccc(OCc3ccccc3)c(OCc3ccccc3)c2)oc2cc(OCCCCl)ccc12
218 to 220 °C	CCCCNC(=O)c1ccc(Cl)c(-n2nc(CCCC)n(Cc3ccc(-c4ccccc4S(=O)(=O)NC(=O)c4ccccc4Cl)cc3F)c2=O)c1
88 to 93 °C	O=c1oc2c(c(O)c1C(c1ccccc1)C1CC1)CCCCCC2CC1CCCCO1 (stereo not drawn)
86 to 88 °C	CS(=O)(=O)NCCC1(C[N+](=O)[O-])CCCCC1
108 °C	N#Cc1ccc([C@H]2CC[C@H](CO)CC2)cc1
143 to 145 °C	CC(=O)NCC1CN(c2ccc(S(C)=O)c(F)c2)C(=O)O1 (stereo not drawn)
148 to 150 °C	CC(C)(C)c1cc(Cn2c(=S)sc3ccccc32)cc(C(C)(C)C)c1O
165 to 167 °C	COc1ccc(-c2ncn(Cc3ccccc3)c2-c2ccc(OC)cc2)cc1
157 to 158 °C	CCc1ccc(-c2c(Cl)c(CN3C(=O)CCC3=O)nc3sc4c(c23)CCNC4)cc1
83 to 88 °C	O=C(OCc1ccccc1)c1ccc(O)cc1O
60 °C	CCCC1CC1(C(=O)Nc1ccc(Br)cc1C)C(=O)OC (stereo not drawn)
238 to 240 °C	CCCCCCC(C(=O)O)n1cnc(NC(=O)c2cccc(O)c2S(=O)(=O)O)c1 (stereo not drawn)
171 to 173 °C	COc1ccc2sc(C(N)=O)c(SC)c2c1
170 to 171 °C	FC(F)(F)c1cccc(Nc2nccc(-c3cccnc3)n2)c1
94 to 96 °C	O=C(NC1CC1)C1CC(=O)N(Cc2ccccc2)C1 (stereo not drawn)
